Source: patent US8426437B2, “Pyrroloquinoline derivatives and their use as protein kinases inhibitors” (Pierre Fabre Medicament, priority 2005, dated 2013)
Blank lines part the entries; values can stand above or below the compound they belong to.

Columns and labels:
IGF-1R (h) = target: T1, IGF-1R (h) (Homo sapiens, UniProt P08069); assay: Upstate kinase panel: IGF-1R; assay type: biochemical; conditions: 10 μM ATP
T1 construct: purchased Upstate
Description: (§1) These kinases are produced by Upstate and screened according to the respective protocols indicated by the supplier (http://www.upstate.com/features/kp_protocols.asp). Examples 1, 12, 166 and 238 were tested at a concentration of 20 μM, 10 μM, 1 μM and 1 μM respectively in the presence of 10 μM of ATP for examples 1 and 12 and at the concentrations of ATP shown in parentheses for examples 166 and 238. The results shown in Table VII correspond to percentage inhibition of the kinase tested in the presence of the compound, relative to a control effected without the compound.

cSRC (h) = target: T2, cSRC (h) (Homo sapiens, UniProt P12931); assay: Upstate kinase panel: cSRC; assay type: biochemical
T2 construct: purchased Upstate
Description: as §1

JAK3 (h) = target: T3, JAK3 (h) (Homo sapiens, UniProt P52333); assay: Upstate kinase panel: JAK3; assay type: biochemical
T3 construct: purchased Upstate
T3 sequence (P52333 1-1124): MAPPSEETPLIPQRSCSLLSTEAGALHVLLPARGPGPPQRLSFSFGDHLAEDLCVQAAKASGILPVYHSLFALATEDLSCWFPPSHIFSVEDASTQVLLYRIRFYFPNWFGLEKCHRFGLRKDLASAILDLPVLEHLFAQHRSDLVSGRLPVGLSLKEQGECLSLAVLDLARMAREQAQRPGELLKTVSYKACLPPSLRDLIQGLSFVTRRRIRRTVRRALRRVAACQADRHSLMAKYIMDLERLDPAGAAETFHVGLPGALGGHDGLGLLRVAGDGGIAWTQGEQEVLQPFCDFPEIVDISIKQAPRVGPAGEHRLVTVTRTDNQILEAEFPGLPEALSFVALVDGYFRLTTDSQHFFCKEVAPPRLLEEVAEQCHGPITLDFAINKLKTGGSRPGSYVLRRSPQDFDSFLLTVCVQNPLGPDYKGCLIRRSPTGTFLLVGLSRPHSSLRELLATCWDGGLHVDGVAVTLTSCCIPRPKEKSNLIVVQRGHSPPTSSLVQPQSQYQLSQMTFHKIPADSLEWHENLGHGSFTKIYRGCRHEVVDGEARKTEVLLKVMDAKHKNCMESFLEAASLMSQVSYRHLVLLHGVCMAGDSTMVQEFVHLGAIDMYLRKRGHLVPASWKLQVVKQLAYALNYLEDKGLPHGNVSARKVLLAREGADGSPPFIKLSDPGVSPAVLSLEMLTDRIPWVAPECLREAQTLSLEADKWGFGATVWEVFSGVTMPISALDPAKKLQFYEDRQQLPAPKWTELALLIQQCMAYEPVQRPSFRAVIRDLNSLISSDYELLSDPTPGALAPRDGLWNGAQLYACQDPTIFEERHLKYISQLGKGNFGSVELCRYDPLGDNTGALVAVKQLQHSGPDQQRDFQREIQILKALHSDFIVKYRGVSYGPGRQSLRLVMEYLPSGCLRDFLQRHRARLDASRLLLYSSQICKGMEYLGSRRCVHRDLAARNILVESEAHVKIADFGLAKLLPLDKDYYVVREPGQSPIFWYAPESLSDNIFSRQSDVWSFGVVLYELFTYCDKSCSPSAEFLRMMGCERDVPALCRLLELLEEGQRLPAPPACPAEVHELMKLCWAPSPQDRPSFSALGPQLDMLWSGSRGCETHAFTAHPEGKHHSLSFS
Description: as §1

FGFR2 (h) = target: T4, FGFR2 (h) (Homo sapiens, UniProt P21802); assay: Upstate kinase panel: FGFR2; assay type: biochemical; conditions: 10 μM ATP
T4 construct: purchased Upstate
Description: as §1

EGFR (h) = target: T5, EGFR (h) (Homo sapiens, UniProt P00533); assay: Upstate kinase panel: EGFR; assay type: biochemical
T5 construct: purchased Upstate
Description: as §1

IKKβ (h) = target: T6, IKKβ (h) (Homo sapiens, UniProt O14920); assay: Upstate kinase panel: IKKβ; assay type: biochemical
T6 construct: purchased Upstate
T6 sequence (O14920 1-756): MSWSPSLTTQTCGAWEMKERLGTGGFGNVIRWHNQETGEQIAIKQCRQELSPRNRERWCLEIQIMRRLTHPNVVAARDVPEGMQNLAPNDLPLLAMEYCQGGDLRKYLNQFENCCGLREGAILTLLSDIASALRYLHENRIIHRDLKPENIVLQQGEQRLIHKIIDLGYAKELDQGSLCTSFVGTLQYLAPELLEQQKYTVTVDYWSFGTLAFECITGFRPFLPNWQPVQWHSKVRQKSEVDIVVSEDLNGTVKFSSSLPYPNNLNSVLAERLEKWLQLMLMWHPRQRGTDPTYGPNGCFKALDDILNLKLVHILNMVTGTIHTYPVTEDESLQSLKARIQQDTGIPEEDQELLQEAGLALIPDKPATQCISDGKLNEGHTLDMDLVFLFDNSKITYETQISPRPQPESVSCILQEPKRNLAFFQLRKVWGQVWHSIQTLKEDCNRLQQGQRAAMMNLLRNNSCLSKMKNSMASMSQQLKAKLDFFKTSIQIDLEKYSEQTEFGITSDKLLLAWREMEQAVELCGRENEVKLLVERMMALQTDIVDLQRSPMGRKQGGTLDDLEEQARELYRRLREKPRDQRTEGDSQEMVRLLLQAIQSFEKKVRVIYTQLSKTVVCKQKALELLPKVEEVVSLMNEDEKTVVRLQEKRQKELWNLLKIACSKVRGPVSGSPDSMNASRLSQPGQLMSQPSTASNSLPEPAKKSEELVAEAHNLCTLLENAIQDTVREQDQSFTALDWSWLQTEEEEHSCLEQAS
Description: as §1

CDK2/cyclinE (h) = target: T7, CDK2/cyclinE (h) (Homo sapiens, UniProt P24941); assay: Upstate kinase panel: CDK2/cyclinE; assay type: biochemical; conditions: 10 μM ATP
T7 construct: purchased Upstate
Description: as §1

GSK3B (h) = target: T8, GSK3B (h) (Homo sapiens, UniProt P49841); assay: Upstate kinase panel: GSK3B; assay type: biochemical
T8 construct: purchased Upstate
Description: as §1

A427 = assay: WST test, inhibition of proliferation of A427; assay type: cell-based; conditions: Homo sapiens, A-427, 96 h; line A427, tissue of origin Lung (NSCLC); four days of incubation, WST-1
Description: The inhibition of the proliferation of cell lines by certain compounds of the invention was tested. […] In the example, the lines used were derived from cancers of the uterus, central nervous system, colon, stomach, head and neck, lung, breast, pancreas, and kidney, as well as from lymphoma, myeloma, pleura, or from melanoma.
The WST test for measuring cell proliferation and viability (Roche Applied Science) is based on cleavage of a tetrazolium salt by the mitochondrial dehydrogenases in viable cells.
After four days of incubation of the compounds with the cell line, 14 μl of WST-1 reagent is added to each well and the plates are incubated for four hours at 37° in humid atmosphere at 5% CO2. The level of formazan formed is then determined by spectrophotometry at 450 nm whereas a reference is measured at 650 nm. A control with untreated cells is represented by six wells per plate and the group of treated cells is produced in triplicate for each of the concentrations measured.
The compounds are tested at five concentrations between 10 nM and 100 μM and two cytotoxic agents are used as controls: adriamycin and 5-fluorouracil.

[1] = compound 20 μM, read-out: % inhibition at 20 μMol
[2] = compound 20 μM, 10 μM ATP, read-out: % inhibition at 20 μMol
[3] = compound 10 μM, read-out: % inhibition at 10 μMol
[4] = compound 10 μM, 10 μM ATP, read-out: % inhibition at 10 μMol
[5] = compound 1 μM, ATP (10), read-out: % inhibition at 1 μMol

T2 sequence (P12931 whole entry): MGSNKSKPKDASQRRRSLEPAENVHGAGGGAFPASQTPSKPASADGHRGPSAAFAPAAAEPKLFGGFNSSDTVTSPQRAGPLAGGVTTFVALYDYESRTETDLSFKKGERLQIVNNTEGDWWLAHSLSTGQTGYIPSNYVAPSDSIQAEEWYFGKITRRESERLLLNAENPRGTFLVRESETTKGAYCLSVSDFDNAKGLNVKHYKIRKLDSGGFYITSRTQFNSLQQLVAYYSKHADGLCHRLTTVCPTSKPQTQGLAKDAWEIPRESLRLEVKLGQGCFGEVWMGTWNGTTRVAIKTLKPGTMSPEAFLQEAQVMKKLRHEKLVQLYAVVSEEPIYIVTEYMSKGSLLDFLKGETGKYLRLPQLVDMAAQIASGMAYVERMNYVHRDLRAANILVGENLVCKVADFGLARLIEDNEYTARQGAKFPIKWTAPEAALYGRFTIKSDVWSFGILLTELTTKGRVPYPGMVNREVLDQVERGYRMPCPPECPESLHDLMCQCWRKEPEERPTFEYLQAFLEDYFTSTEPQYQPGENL
T5 sequence (P00533 25-1210): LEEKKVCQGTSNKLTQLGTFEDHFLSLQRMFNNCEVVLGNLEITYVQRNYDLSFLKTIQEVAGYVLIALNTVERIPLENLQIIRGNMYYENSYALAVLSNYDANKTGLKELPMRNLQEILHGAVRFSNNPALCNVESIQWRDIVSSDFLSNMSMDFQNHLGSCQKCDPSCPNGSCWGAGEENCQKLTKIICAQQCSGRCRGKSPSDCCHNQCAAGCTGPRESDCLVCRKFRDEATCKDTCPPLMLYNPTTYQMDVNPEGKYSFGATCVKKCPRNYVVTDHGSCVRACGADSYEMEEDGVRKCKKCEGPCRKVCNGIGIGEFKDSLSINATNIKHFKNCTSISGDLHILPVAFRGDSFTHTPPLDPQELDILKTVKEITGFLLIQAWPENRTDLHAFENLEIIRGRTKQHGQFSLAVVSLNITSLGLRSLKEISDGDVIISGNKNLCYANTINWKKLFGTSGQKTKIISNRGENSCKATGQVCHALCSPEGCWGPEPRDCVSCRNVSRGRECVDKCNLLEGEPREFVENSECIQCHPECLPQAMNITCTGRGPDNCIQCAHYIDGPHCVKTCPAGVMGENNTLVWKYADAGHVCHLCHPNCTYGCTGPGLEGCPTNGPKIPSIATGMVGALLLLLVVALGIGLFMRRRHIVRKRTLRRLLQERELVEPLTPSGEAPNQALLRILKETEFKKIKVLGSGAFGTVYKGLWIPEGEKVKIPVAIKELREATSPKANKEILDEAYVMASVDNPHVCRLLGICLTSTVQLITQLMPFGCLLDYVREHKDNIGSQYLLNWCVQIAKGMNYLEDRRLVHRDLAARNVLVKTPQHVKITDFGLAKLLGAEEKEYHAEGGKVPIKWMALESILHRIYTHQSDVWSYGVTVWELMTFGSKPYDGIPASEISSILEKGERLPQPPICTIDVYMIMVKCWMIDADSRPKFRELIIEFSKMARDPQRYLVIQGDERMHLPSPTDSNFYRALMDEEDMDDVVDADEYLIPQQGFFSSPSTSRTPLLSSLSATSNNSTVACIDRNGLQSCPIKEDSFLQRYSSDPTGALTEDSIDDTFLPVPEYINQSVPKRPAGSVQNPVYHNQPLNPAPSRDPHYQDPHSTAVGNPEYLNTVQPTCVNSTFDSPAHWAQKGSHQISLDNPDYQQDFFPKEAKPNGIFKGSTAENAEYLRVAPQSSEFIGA
T8 sequence (P49841 whole entry): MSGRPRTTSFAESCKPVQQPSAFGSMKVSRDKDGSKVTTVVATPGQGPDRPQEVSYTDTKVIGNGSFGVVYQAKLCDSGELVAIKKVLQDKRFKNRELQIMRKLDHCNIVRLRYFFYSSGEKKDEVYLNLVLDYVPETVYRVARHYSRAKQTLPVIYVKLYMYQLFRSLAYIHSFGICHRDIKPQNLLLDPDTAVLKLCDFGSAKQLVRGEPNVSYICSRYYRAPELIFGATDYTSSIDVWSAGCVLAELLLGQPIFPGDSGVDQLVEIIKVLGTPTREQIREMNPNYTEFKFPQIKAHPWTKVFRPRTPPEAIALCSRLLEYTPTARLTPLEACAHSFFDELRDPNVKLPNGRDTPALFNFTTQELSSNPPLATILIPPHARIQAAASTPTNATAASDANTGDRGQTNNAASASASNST
T1 sequence (P08069 31-1367): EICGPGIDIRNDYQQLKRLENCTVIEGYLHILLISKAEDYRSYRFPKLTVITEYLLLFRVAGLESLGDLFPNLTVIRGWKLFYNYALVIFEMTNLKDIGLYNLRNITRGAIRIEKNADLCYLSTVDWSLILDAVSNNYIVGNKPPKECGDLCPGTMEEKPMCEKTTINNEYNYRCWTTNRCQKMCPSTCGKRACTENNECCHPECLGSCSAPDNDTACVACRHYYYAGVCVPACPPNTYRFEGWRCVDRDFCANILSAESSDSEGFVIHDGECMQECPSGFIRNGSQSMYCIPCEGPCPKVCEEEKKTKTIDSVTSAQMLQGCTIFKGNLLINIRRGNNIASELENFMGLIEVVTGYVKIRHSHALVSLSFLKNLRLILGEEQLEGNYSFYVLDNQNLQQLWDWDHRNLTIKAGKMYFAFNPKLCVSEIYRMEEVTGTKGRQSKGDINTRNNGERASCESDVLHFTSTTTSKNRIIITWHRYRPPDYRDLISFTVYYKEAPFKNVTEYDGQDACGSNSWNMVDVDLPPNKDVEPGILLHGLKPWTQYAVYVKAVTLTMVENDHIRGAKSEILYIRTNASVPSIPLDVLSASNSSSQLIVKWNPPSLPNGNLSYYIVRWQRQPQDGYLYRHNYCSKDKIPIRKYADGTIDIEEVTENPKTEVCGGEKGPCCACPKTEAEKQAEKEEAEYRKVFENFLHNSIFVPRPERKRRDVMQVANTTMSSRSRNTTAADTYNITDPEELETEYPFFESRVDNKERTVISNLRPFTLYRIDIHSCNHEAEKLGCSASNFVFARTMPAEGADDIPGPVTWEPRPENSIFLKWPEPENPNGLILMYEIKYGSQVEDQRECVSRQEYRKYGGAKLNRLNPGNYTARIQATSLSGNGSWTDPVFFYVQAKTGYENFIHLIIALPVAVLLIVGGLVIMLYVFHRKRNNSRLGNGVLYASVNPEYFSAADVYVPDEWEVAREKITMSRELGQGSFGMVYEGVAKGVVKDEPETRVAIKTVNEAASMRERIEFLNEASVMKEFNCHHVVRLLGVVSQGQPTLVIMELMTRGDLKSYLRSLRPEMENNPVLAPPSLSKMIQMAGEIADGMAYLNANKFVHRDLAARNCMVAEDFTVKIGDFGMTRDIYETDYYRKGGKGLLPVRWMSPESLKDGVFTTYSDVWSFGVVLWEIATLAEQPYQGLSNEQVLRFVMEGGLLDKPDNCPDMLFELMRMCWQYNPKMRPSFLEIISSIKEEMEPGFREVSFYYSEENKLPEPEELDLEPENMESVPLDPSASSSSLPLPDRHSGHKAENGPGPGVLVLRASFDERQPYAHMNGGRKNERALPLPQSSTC
T4 sequence (P21802 22-821): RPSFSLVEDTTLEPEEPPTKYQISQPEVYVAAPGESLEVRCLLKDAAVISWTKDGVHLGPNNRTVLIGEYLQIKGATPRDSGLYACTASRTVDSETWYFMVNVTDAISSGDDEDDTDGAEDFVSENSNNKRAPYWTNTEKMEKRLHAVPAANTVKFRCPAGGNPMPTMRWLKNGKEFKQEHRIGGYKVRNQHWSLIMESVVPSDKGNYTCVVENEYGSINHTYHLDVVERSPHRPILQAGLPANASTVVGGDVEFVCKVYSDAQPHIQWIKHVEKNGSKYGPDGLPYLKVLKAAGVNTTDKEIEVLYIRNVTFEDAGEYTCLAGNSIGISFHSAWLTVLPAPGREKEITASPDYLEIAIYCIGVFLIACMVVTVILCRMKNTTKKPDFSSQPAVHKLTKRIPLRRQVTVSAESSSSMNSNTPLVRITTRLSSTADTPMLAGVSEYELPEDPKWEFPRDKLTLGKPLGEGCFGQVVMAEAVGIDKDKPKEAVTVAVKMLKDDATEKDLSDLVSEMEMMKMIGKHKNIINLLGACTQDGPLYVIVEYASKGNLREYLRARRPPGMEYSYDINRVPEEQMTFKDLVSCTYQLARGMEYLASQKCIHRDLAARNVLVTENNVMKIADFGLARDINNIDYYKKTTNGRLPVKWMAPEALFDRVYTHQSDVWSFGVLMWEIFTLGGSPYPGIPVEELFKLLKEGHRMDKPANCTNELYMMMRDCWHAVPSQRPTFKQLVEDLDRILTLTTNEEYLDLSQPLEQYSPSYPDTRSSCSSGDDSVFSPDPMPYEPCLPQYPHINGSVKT

- inhibition at 20 µM (IGF-1R (h); [1]): 42%
- inhibition at 20 µM (cSRC (h); [2]): 86%
- inhibition at 20 µM (JAK3 (h); [2]): 58%
- inhibition at 20 µM (FGFR2 (h); [1]): 82%
- inhibition at 20 µM (EGFR (h); [2]): 19%
- inhibition at 20 µM (IKKβ (h); [2]): 22%
- inhibition at 20 µM (CDK2/cyclinE (h); [1]): 97%
SMILES: CCOC(=O)c1c[nH]c2c(=O)[nH]c3ccccc3c12 [Compound 1, 4-Oxo-4,5-dihydro-3H-pyrrolo[2,3-c]quinoline-1-ethyl carboxylate]

- inhibition at 10 µM (IGF-1R (h); [3]): 0%
- inhibition at 10 µM (cSRC (h); [4]): 91%
- inhibition at 10 µM (JAK3 (h); [4]): 50%
- inhibition at 10 µM (FGFR2 (h); [3]): 91%
- inhibition at 10 µM (EGFR (h); [4]): 13%
- inhibition at 10 µM (IKKβ (h); [4]): 0%
- inhibition at 10 µM (CDK2/cyclinE (h); [3]): 12%
- inhibition at 10 µM (GSK3B (h); [4]): 22%
SMILES: CCOC(=O)c1c[nH]c2c(=O)[nH]c3ccc(S(=O)(=O)Nc4ccc(F)cc4)cc3c12 [Compound 12, 8-(4-Fluorophenylsulfamoyl)-4-oxo-4,5-dihydro-3H-pyrrolo[2,3-c]quinoline-1-ethyl carboxylate]

- inhibition at 1 µM (cSRC (h); compound 1 μM, ATP (200), read-out: % inhibition at 1 μMol): 7%
- inhibition at 1 µM (JAK3 (h); [5]): 5%
- inhibition at 1 µM (EGFR (h); [5]): 3%
- inhibition at 1 µM (IKKβ (h); [5]): 0%
- inhibition at 1 µM (GSK3B (h); compound 1 μM, ATP (15), read-out: % inhibition at 1 μMol): 0%
SMILES: CCOC(=O)c1c[nH]c2c(=O)[nH]c3ccc(-c4cccc(S(C)(=O)=O)c4)cc3c12 [Compound 238, 8-(3-Methanesulfonyl-phenyl)-4-oxo-4,5-dihydro-3H-pyrrolo[2,3-c]quinoline-1-ethyl carboxylate]
- IC50 (A427): 36 µM
